Drawing on US20250382273A1 (INSTITUT NATIONAL DE LA SANTE ET DE LA RECHERCHE MEDICALE, priority 2022, published 2025), this text covers EC50 for 24 compounds.

The test has as its system M. tuberculosis H37Rv_gfp. The class given is cell-based, Mycobacterium tuberculosis.
[1] abbreviates: in combination with pretomanid 20 ng·mL−1, 5 days at 37° C., […], read-out: EC50 H37Rv_gfp.
Where [2] appears, read: in combination with pretomanid, unit inferred, read-out: average EC50 H37Rv_gfp.

Where two headings read alike, the source gives them in different places.

For orientation: EC50 means the concentration giving half of the maximal effect.

Take `O=C1[C@@H]2[C@H](C(=O)N1c1nc3ccc(Oc4ccc(C(F)(F)F)cc4)cc3s1)[C@@H]1C=C[C@H]2C1` [Example 23, (1R,2S,6R,7S)-4-[6-[4-(trifluoromethyl)phenoxy]-1,3-benzothiazol-2-yl]-4-azatricyclo[5.2.1.02,6]dec-8-ene-3,5-dione]: the EC50 under setting [1] was 1000 to 5000 nM.

Turning to `O=C(Nc1nc2ccc(Oc3ccc(C(F)(F)F)cn3)cc2s1)[C@@H]1C2C=CC(C2)[C@@H]1C(=O)O` (some centres unmarked) [Example 35, 3-[[6-[[5-(trifluoromethyl)-2-pyridyl]oxy]-1,3-benzothiazol-2-yl]carbamoyl]bicyclo[2.2.1]hept-5-ene-2-carboxylic acid], the EC50 under setting [1] lay in the range of 1000 to 5000 nM.

For `O=C1C2C3C=CC(C3)C2C(=O)N1c1nc2ccc(-c3ccccc3C(F)(F)F)cc2s1` [Example 58, (1R,2S,6R,7S)-4-[6-[[2-(trifluoromethyl)phenyl]-1,3-benzothiazol-2-yl]-4-azatricyclo [5.2.1.02,6]dec-8-ene-3,5-dione], the EC50 under setting [1] fell in the range of 5000 to 10000 nM.

In the case of `O=C(Nc1nc2ccc(-c3cncnc3)cc2s1)[C@@H]1C2C=CC(C2)[C@@H]1C(=O)O` (some centres unmarked) [Example 80, 3-[(6-pyrimidin-5-yl-1,3-benzothiazol-2-yl)carbamoyl]bicyclo[2.2.1]hept-5-ene-2-carboxylic acid], the EC50 under setting [1] was 10000 to 20000 nM.

Turning to `O=C(Nc1nc2ccc(-c3ccc(C(F)(F)F)cc3)cc2s1)[C@@H]1C2C=CC(C2)[C@@H]1C(=O)O` (some centres unmarked) [Example 60, 3-[[6-[4-(trifluoromethyl)phenyl]-1,3-benzothiazol-2-yl]carbamoyl]bicyclo[2.2.1]hept-5-ene-2-carboxylic acid], the EC50 was less than 1000 nM under setting [1] and 50 nM under setting [2].

`O=C(Nc1nc2ccc(C#Cc3ccccc3)cc2s1)[C@@H]1C2C=CC(C2)[C@@H]1C(=O)O` (some centres unmarked) [Example 77, 3-[[6-(2-phenylethynyl)-1,3-benzothiazol-2-yl]carbamoyl]bicyclo[2.2.1]hept-5-ene-2-carboxylic acid]: under setting [1], the EC50 is less than 1000 nM.

Turning to `COc1cc(Nc2ccc3nc(N4C(=O)[C@@H]5C6C=CC(C6)[C@@H]5C4=O)sc3c2)ccn1` [Example 92, 4-[6-[(2-methoxy-4-pyridyl)amino]-1,3-benzothiazol-2-yl]-4-azatricyclo[5.2.1.02,6]dec-8-ene-3,5-dione], the EC50 under setting [1] lay in the range of 1000 to 5000 nM.

Regarding `O=C(Nc1nc2ccc(-c3ccc(Cl)cc3)cc2s1)[C@@H]1C2C=CC(C2)[C@@H]1C(=O)O` (some centres unmarked) [Example 55, 3-[[6-(4-chlorophenyl)-1,3-benzothiazol-2-yl]carbamoyl]bicyclo[2.2.1]hept-5-ene-2-carboxylic acid], the EC50 under setting [1] is less than 1000 nM.

For `Cc1ccc2nc(NC(=O)[C@@H]3C4CCC(C4)[C@@H]3C(=O)O)sc2c1` (stereo in doubt) [Example 3, 3-[(6-methyl-1,3-benzothiazol-2-yl)carbamoyl]norbornane-2-carboxylic acid], under setting [1], the EC50 is 1000 to 5000 nM.

Regarding `O=C1[C@@H]2[C@H](C(=O)N1c1nc3ccc(Oc4ncccc4C(F)(F)F)cc3s1)[C@@H]1C=C[C@H]2C1` [Example 26, (1R,2S,6R,7S)-4-[6-[[3-(trifluoromethyl)-2-pyridyl]oxy]-1,3-benzothiazol-2-yl]-4-azatricyclo[5.2.1.02,6]dec-8-ene-3,5-dione], under setting [1], the concentration for a half-maximal effect (EC50) is 1000 to 5000 nM.

Turning to `C#CCOc1ccc(-c2ccc3nc(N4C(=O)[C@@H]5[C@H](C4=O)[C@@H]4C=C[C@H]5C4)sc3c2)cc1` [Example 71, (1R,2S,6R,7S)-4-[6-(4-prop-2-ynoxyphenyl)-1,3-benzothiazol-2-yl]-4-azatricyclo[5.2.1.02,6]dec-8-ene-3,5-dione], under setting [1], the EC50 was less than 1000 nM.

Consider `CC(C)(C)C#Cc1ccc2nc(NC(=O)[C@@H]3C4C=CC(C4)[C@@H]3C(=O)O)sc2c1` (some centres unmarked) [Example 78, 3-[[6-(3,3-dimethylbut-1-ynyl)-1,3-benzothiazol-2-yl]carbamoyl]bicyclo [2.2.1]hept-5-ene-2-carboxylic acid], for which the half-maximal effective concentration (EC50) under setting [1] was less than 1000 nM and the 50% effective concentration (EC50) under setting [2] is 130 nM.

With `O=C(Nc1nc2ccc(OC(F)(F)F)cc2s1)[C@@H]1C2C=CC(C2)[C@@H]1C(=O)O` (some centres unmarked) [Example 44, 3-[[6-(trifluoromethoxy)-1,3-benzothiazol-2-yl]carbamoyl]bicyclo[2.2.1]hept-5-ene-2-carboxylic acid], the concentration giving a half-maximal response (EC50) under setting [1] is less than 1000 nM.

On to `O=C(Nc1nc2ccc(Nc3cncc(C(F)(F)F)c3)cc2s1)[C@@H]1C2C=CC(C2)[C@@H]1C(=O)O` (some centres unmarked) [Example 91, 3-[[6-[[5-(trifluoromethyl)-3-pyridyl]amino]-1,3-benzothiazol-2-yl]carbamoyl]bicyclo[2.2.1]hept-5-ene-2-carboxylic acid], for which the EC50 under setting [1] is 1000 to 5000 nM.

For the compound `C#CCOc1ccc2nc(N3C(=O)[C@@H]4[C@H](C3=O)[C@@H]3C=C[C@H]4C3)sc2c1` [Example 73, (1R,2S,6R,7S)-4-(6-prop-2-ynoxy-1,3-benzothiazol-2-yl)-4-azatricyclo[5.2.1.02,6]dec-8-ene-3,5-dione], under setting [1], the EC50 was less than 1000 nM.

On to `O=C(Nc1nc2ccc(Oc3ccc(C(F)(F)F)cc3)cc2s1)[C@@H]1C2C=CC(C2)[C@@H]1C(=O)O` (some centres unmarked) [Example 22, 3-[[6-[4-(trifluoromethyl)phenoxy]-1,3-benzothiazol-2-yl]carbamoyl]bicyclo[2.2.1]hept-5-ene-2-carboxylic acid], for which, under setting [1], the EC50 was 1000 to 5000 nM.

On to `O=C1[C@@H]2C3C=CC(C3)[C@@H]2C(=O)N1c1nc2c(O)cccc2s1` [Example 74], for which the EC50 under setting [1] is less than 1000 nM.

As to `O=C(Nc1nc2ccc(Oc3ccc(Br)cn3)cc2s1)[C@@H]1C2C=CC(C2)[C@@H]1C(=O)O` (some centres unmarked) [Example 37, 3-[[6-[(5-bromo-2-pyridyl)oxy]-1,3-benzothiazol-2-yl]carbamoyl]bicyclo [2.2.1]hept-5-ene-2-carboxylic acid], the EC50 under setting [1] is 1000 to 5000 nM.

Take `O=C1[C@@H]2C3C=CC(C3)[C@@H]2C(=O)N1c1nc2ccc(Nc3ccc(C(F)(F)F)cn3)cc2s1` [Example 95]: under setting [1], the EC50 is less than 1000 nM.

Take `COc1ccc2sc(NC(=O)[C@@H]3C4C=CC(C4)[C@@H]3C(=O)O)nc2c1` (some centres unmarked) [Example 5, 3-[(5-methoxy-1,3-benzothiazol-2-yl)carbamoyl]bicyclo[2.2.1]hept-5-ene-2-carboxylic acid]: the EC50 under setting [1] lay in the range of 1000 to 5000 nM.

Turning to `Cc1ccnc(Nc2ccc3nc(NC(=O)[C@@H]4C5C=CC(C5)[C@@H]4C(=O)O)sc3c2)c1` (some centres unmarked) [Example 84, 3-[[6-[(4-methyl-2-pyridyl)amino]-1,3-benzothiazol-2-yl]carbamoyl]bicyclo[2.2.1]hept-5-ene-2-carboxylic acid], the EC50 under setting [1] lay within 1000 to 5000 nM.

For the compound `O=C1[C@@H]2[C@H](C(=O)N1c1nc3ccc(Oc4cccc(C(F)(F)F)n4)cc3s1)[C@@H]1C=C[C@H]2C1` [Example 34, (1R,2S,6R,7S)-4-[6-[[6-(trifluoromethyl)-2-pyridyl]oxy]-1,3-benzothiazol-2-yl]-4-azatricyclo[5.2.1.02,6]dec-8-ene-3,5-dione], the concentration giving a half-maximal response (EC50) under setting [1] fell in the range of 1000 to 5000 nM.

In the case of `COC(=O)c1ccc2nc(NC(=O)[C@@H]3C4C=CC(C4)[C@@H]3C(=O)O)sc2c1` (some centres unmarked) [Example 41, 3-[(6-methoxycarbonyl-1,3-benzothiazol-2-yl)carbamoyl]bicyclo[2.2.1]hept-5-ene-2-carboxylic acid], the EC50 under setting [1] was 1000 to 5000 nM.

Take `CCOc1ccc2nc(N3C(=O)[C@@H]4[C@H](C3=O)[C@@H]3C=C[C@H]4C3)sc2c1` [Example 8, (1R,2S,6R,7S)-4-(6-ethoxy-1,3-benzothiazol-2-yl)-4-azatricyclo[5.2.1.02,6]dec-8-ene-3,5-dione]: the EC50 under setting [1] was less than 1000 nM.
